According to patent publication US8497276B2, “Substituted indolo-piperidine compounds” (ArQule, Inc., priority 2009, dated 2013):

Experiments:
PACA-2 = experiment: MTS Assay (cell growth inhibition), PACA-2; type: cell-based; conditions: PACA-2 cells, 72 hours with test compound; concentration not given
Procedure: (§1) Cells were maintained at 37° C., 5% CO2 in DMEM media supplemented with 1% fetal bovine serum, penicillin/streptomycin and fungizone (Invitrogen). Cells were seeded into 96-well tissue culture plates at 3000 per well and cultured at 37° C. for 18 hours. Test compounds were dissolved and diluted to 300× in DMSO then diluted 1:40 in DMEM. Cells were incubated with test compounds for 72 hours followed by incubation with tetrazolium compound (3-(4,5-dimethylthiazol-2-yl)-5-(3-carboxymethoxyphenyl)-2-(4-sulfophenyl)-2H-tetrazolium, inner salt; MTS) and the electron coupling reagent, phenazine methosulfate (PMS) for 4 hours. […] The ability of compounds to inhibit cell growth in this assay is correlated with the reduction of dehydrogenase enzyme activity found in metabolically active cells. The measurement of the absorbance of the formazan was assessed using an ENVISION™ (Perkin Elmer) microplate reader at 492 nm. The calculated IC50 value is the concentration of the test compound that causes a 50% decrease in the absorbance.

Kato III = experiment: MTS Assay (cell growth inhibition), Kato III; type: cell-based; conditions: Kato III cells, 72 hours with test compound; concentration not given
Procedure: as §1

PC-3 = experiment: MTS Assay (cell growth inhibition), PC-3; type: cell-based; conditions: PC-3 cells, 72 hours with test compound; concentration not given
Procedure: as §1

DLD-1 = experiment: MTS Assay (cell growth inhibition), DLD-1; type: cell-based; conditions: DLD-1 cells, 72 hours with test compound; concentration not given
Procedure: as §1

NCI-H1299 = experiment: MTS Assay (cell growth inhibition), NCI-H1299; type: cell-based; conditions: NCI-H1299 cells, 72 hours with test compound; concentration not given
Procedure: as §1

MDA-MB 231 = experiment: MTS Assay (cell growth inhibition), MDA-MB 231; type: cell-based; conditions: MDA-MB 231 cells, 72 hours with test compound; concentration not given
Procedure: as §1

Tec kinase = target: T1, Tec kinase (Homo sapiens, UniProt P42680); experiment: Tec Kinase Activity Assay; type: biochemical; conditions: 75 μM ATP, Pyk-2 substrate; compound concentration not given
T1 sequence (P42680 1-631): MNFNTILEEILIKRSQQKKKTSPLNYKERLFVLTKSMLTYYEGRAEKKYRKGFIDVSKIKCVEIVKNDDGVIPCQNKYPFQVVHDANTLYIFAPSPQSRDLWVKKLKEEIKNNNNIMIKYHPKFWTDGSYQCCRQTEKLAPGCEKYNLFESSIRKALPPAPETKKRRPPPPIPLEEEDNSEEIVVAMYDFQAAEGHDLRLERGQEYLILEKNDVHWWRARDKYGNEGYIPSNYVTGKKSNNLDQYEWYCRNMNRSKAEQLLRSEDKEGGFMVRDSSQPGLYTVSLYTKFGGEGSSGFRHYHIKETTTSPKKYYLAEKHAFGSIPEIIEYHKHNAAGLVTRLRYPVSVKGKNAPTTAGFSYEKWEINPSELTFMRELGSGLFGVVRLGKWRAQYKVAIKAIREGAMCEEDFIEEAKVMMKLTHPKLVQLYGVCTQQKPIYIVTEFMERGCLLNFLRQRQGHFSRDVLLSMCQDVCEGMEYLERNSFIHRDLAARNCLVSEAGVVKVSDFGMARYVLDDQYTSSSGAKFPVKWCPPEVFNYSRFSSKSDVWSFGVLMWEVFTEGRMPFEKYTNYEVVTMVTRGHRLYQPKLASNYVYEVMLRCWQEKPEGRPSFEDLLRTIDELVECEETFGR
Procedure: The disclosed compounds were assayed for their ability to inhibit the activity of Tec kinase. Nunc Maxisorb plates were coated with streptavidin by overnight incubation with 100 μl per well of 1 μg/ml Streptavidin in DPBS. Prior to the start of the experiment, the plates were washed with TBST (3×200 μl) and blocked for at least 1 hour by adding 150 μl of 5% BSA/TBST. The plates were then washed with TBST (3×200 μl/well) and left dry immediately before the capture step.
The disclosed test compounds and controls (Staurosporine and Sutent) were prepared using the following assay buffer (50 mM Tris-HCl, 0.02 mg/ml BSA, 10 mM MgCl2, 0.1 mM Na3VO4, 1 mM EGTA, 75 μM ATP, 0.01% NP-40, 2 mM DTT in 10% glycerol/water) at 3× desired final concentration. 20 μl of the test compounds (or control) and 20 μl TEC (0.25 ng/μl) were rapidly added to a reaction plate. The plate was incubated for 30 minutes. 20 μl of Pyk-2 (0.5 ng/μl) was then added to the reaction plate. The plate was incubated at room temperature for two hours.
50 μl was transferred from the reaction plate to the streptavidin coated plate. The capture plate was incubated at room temperature for 30 minutes then washed with TBST 6 times. 100 μl/well of Cell Signaling anti-phospho tyrosine was added to the capture plate at a dilution of 1:3000 in 2% BSA/TBST. The plate was incubated for one hour at room temperature then washed with TBST 6 times. 100 μl/well of alkaline phosphatase tagged goat anti-mouse antibody was added to the capture plate at a dilution of 1:4000 in 2% BSA/TBST. The plate was incubated for one hour at room temperature then washed with TBST 6 times.
The fluorescent readout was initiated by the addition of 100 μl/well of Attophos reagent (6 mg/10 ml) and the reading was done on the Perkin Elmer Envision system.

Compound	MTS cell kill data (% inhibition) PACA-2 (PACA-2)	MTS cell kill data (% inhibition) Kato III (Kato III)	MTS cell kill data (% inhibition) PC-3 (PC-3)	MTS cell kill data (% inhibition) DLD-1 (DLD-1)	MTS cell kill data (% inhibition) NCI-H1299 (NCI-H1299)	MTS cell kill data (% inhibition) MDA-MB 231 (MDA-MB 231)	Biochemical IC50 (% inhibition) Tec (Tec kinase)
Cc1cccc(C2c3[nH]c4ccccc4c3CCN2c2ncnc3[nH]ccc23)c1 (stereo not drawn) [Compound 10, 1-(3-methylphenyl)-2-(7H-pyrrolo[2,3-d]pyrimidin-4-yl)-2,3,4,9-tetrahydro-1H-beta-carboline]	B (B = 50-79% inhibition)	B (B = 50-79% inhibition)	C (C = <50% inhibition)	B (B = 50-79% inhibition)	B (B = 50-79% inhibition)	C (C = <50% inhibition)	C (C = <50% inhibition)
Nc1nc(N2CCc3c([nH]c4ccccc34)C2Cc2ccccc2)c2nc[nH]c2n1 (stereo not drawn) [Compound 16, 6-(1-benzyl-1,3,4,9-tetrahydro-2H-beta-carbolin-2-yl)-9H-purin-2-amine]	C (C = <50% inhibition)	C (C = <50% inhibition)	C (C = <50% inhibition)	C (C = <50% inhibition)	C (C = <50% inhibition)	C (C = <50% inhibition)	C (C = <50% inhibition)
Clc1ccccc1C1c2[nH]c3ccccc3c2CCN1c1ncnc2[nH]cnc12 (stereo not drawn) [Compound 13, 1-(2-chlorophenyl)-2-(9H-purin-6-yl)-2,3,4,9-tetrahydro-1H-beta-carboline]	C (C = <50% inhibition)	C (C = <50% inhibition)	C (C = <50% inhibition)	C (C = <50% inhibition)	B (B = 50-79% inhibition)	C (C = <50% inhibition)	B (B = 50-79% inhibition)
c1ccc(CC2c3[nH]c4ccccc4c3CCN2c2ncnc3[nH]ccc23)cc1 (stereo not drawn) [Compound 14, 1-benzyl-2-(7H-pyrrolo[2,3-d]pyrimidin-4-yl)-2,3,4,9-tetrahydro-1H-beta-carboline]	B (B = 50-79% inhibition)	A (A = 80-100% inhibition)	A (A = 80-100% inhibition)	B (B = 50-79% inhibition)	A (A = 80-100% inhibition)	A (A = 80-100% inhibition)	C (C = <50% inhibition)
FC(F)(F)c1cccc(C2c3[nH]c4ccccc4c3CCN2c2ncnc3[nH]cnc23)c1 (stereo not drawn) [Compound 8, 2-(9H-purin-6-yl)-1-[3-(trifluoromethyl)phenyl]-2,3,4,9-tetrahydro-1H-beta-carboline]	B (B = 50-79% inhibition)	A (A = 80-100% inhibition)	A (A = 80-100% inhibition)	A (A = 80-100% inhibition)	A (A = 80-100% inhibition)	A (A = 80-100% inhibition)	C (C = <50% inhibition)
COc1ccc(C2c3[nH]c4ccccc4c3CCN2c2ncnc3[nH]ccc23)cc1 (stereo not drawn) [Compound 30, 1-(4-methoxyphenyl)-2-(7H-pyrrolo[2,3-d]pyrimidin-4-yl)-2,3,4,9-tetrahydro-1H-beta-carboline]	B (B = 50-79% inhibition)	A (A = 80-100% inhibition)	A (A = 80-100% inhibition)	B (B = 50-79% inhibition)	B (B = 50-79% inhibition)	A (A = 80-100% inhibition)	C (C = <50% inhibition)
c1ccc(C2c3[nH]c4ccccc4c3CCN2c2ncnc3[nH]ccc23)cc1 (stereo not drawn) [Compound 24, 1-phenyl-2-(7H-pyrrolo[2,3-d]pyrimidin-4-yl)-2,3,4,9-tetrahydro-1H-beta-carboline]	B (B = 50-79% inhibition)	B (B = 50-79% inhibition)	C (C = <50% inhibition)	B (B = 50-79% inhibition)	B (B = 50-79% inhibition)	C (C = <50% inhibition)	B (B = 50-79% inhibition)
c1ccc(CC2c3[nH]c4ccccc4c3CCN2c2ncnc3[nH]cnc23)cc1 (stereo not drawn) [Compound 15, 1-benzyl-2-(9H-purin-6-yl)-2,3,4,9-tetrahydro-1H-beta-carboline]	C (C = <50% inhibition)	B (B = 50-79% inhibition)	A (A = 80-100% inhibition)	B (B = 50-79% inhibition)	A (A = 80-100% inhibition)	A (A = 80-100% inhibition)	C (C = <50% inhibition)
Fc1ccc(C2c3[nH]c4ccccc4c3CCN2c2ncnc3[nH]ncc23)cc1 (stereo not drawn) [Compound 6, 1-(4-fluorophenyl)-2-(1H-pyrazolo[3,4-d]pyrimidin-4-yl)-2,3,4,9-tetrahydro-1H-beta-carboline]	B (B = 50-79% inhibition)	A (A = 80-100% inhibition)	C (C = <50% inhibition)	B (B = 50-79% inhibition)	B (B = 50-79% inhibition)	A (A = 80-100% inhibition)	B (B = 50-79% inhibition)
